Data as given in patent US20120231097A1, “MEDICINAL COMPOSITION AND USAGE” (priority 2009, published 2012).

Tested on: human colon cancer cell strain colon 38
Assay: Anti-tumor effect with 5-fluorouracil in human cancer xenograft tumor animal model
Assay type: in vivo
Conditions: after 4 weeks
Description: According to methods described in “Methodology in Pharmacological Research of Traditional Chinese Medicine” (People's Medical Publishing House), test the anti-tumor effects of Formula A, B, C, D traditional Chinese medicine composition prepared from Embodiment 1-4 along with chemotherapy drugs (5-fluorouracil) for human cancer xenograft tumor animal model. 5-fluorouracil (fu) is broad spectrum anti-tumor medicine, it is mainly used to treat digestive tract tumor, commonly seen adverse reactions include nausea, reduced appetite or vomit, abdomen discomfort or diarrhea. About the test method, use human colon cancer cell strain colon 38 to inoculate subcutaneously in 18-23 g mouse, 14 days after the inoculation, respectively ingest Formula A, B, C, D traditional Chinese medicine composition prepared from Embodiment 1-4 into the stomach of each group of animals, the dosage is 500 mg/kg; 0.5-1 hour after stomach ingestion, inject 5-fluorouracil into abdomen, the dosage is 30 mg/kg. Execute stomach ingestion and drug injection twice each week, totaling 4 weeks.

Compound: O=c1[nH]cc(F)c(=O)[nH]1 [fu, 5-fluorouracil]
- Average tumor weight (formula 500 mg/kg into stomach, fu 30 mg/kg into abdomen, twice each week): 0.42 ± 0.11 g
- Death number (of 10 supplied mice): 5
- Tumor inhibition rate (%) (versus CK group's average tumor weight): 64%
